Data reported in patent publication US9573921B2, “Substituted N, N-dimethylaminoalkyl ethers of isoflavanone oximes as H1-receptor antagonists” (POLFARMEX S.A., priority 2013, dated 2017).

Target: T1, H3 (Cavia porcellus, UniProt Q9JI35)
T1 construct: Whole jejunum segments (2 cm) were prepared and mounted between two platinum electrodes; from tissue; host or cells: guinea pig jejunum (small intestine, 20-50 cm proximal to the ileocaecal valve)
Assay: H3 antagonistic effects in vitro, electrically stimulated guinea pig jejunum, versus (R)-α-methylhistamine
Assay type: cell-based
Details: (R)-α-methylhistamine as H3-agonist, pyrilamine 1·10^-5 mol/L present, Schild regression, read-out: pA2 (H3-antagonistic activity) (converted)
Experimental: Selected compounds were tested for H3 antagonistic effects in vitro, following standard methods, using the guinea pig ileum (R. C. Vollinga, O. P. Zuiderveld, H. Scheerens, A. Bast, H. Timmerman, Meth. Find. Exp. Cli. Pharmacol. 1992, 105, 747-751). Male guinea pigs weighing 300-400 g were sacrificed by a blow on the head. A portion of the small intestine, 20-50 cm proximal to the ileocaecal valve (jejunum), was removed and placed in Krebs buffer (composition (mM) NaCl 118; KCl 5.6; MgSO4 1.18; CaCl2 2.5; NaH2PO4 1.28; NaHCO3 25; glucose 5.5 and indomethacin (1 10^−6 mol/L)). […] Contractions were recorded isotonically under 1.0 g tension with Hugo Sachs Hebel-Messvorsatz (T1-2)/HF-modem (Hugo Sachs Electronik, Hugstetten, Germany) connected to a pen recorder. […] After 30 min of stimulation, five minutes before adding (R)-α-methylhistamine, pyrilamine (1.10^−5 mol/L concentration in organ bath) was added, and then cumulative concentration-response curves (half-log increments) of (R)-α-methylhistamine, H3-agonist, were recorded until no further change in response was found. Five minutes before adding the tested compounds, the pyrilamine (1 10^−5 mol/L concentration in organ bath) was added, and after 20 minutes cumulative concentration-response curves (half-log increments) of (R)-α-methylhistamine, H3-agonist, were recorded until no further change in response was found. […]

T1 sequence (Q9JI35 whole entry): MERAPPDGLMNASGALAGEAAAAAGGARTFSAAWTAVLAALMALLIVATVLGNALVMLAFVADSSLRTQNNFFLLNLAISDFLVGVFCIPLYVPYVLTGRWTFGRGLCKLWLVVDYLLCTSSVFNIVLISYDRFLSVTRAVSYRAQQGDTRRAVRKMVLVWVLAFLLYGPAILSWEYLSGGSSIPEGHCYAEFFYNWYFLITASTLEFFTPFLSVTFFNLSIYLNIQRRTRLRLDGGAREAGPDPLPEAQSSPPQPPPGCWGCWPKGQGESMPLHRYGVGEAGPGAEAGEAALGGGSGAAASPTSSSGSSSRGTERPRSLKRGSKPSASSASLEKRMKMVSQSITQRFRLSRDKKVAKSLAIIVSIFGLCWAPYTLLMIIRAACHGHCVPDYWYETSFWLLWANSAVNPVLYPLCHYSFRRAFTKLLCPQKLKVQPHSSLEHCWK

Compound `S=C(NC1CCCCC1)N1CCC(c2cnc[nH]2)CC1` [thioperamide] has a Kb of 2.14 nM.
